Structures are written as SMILES. *1 amine or outer side, *2 acyl side, *3 side chain or, on linkers, in order; H or OH if unused. Where a SMILES comes first, the peptide text is derived from it. [ ]: non-standard residue; d: D form. The star is where a group is joined. d(hhPhe) = N[C@H](CCCc1ccccc1)C(=O)O; X2 = O=C(C(CCOc1ccccc1)N[*:1])[*:2]; hhPhe = N[C@@H](CCCc1ccccc1)C(=O)O; Hydrocinnamoyl = O=C(CCc1ccccc1)*; Cha = N[C@@H](CC1CCCCC1)C(=O)O; X10 = O=C(Cc1c[nH]c2ccccc12)*; PhAc = O=C(Cc1ccccc1)*; Ahp = NCCCCCCC(=O)O; X8 = c1ccc(CCC*)cc1; Bn = c1ccc(C*)cc1

For orientation: Ki means a dissociation constant, usually derived from enzyme kinetics or from competition with a known ligand.

This assay deals with T1, C5a receptor (Homo sapiens, UniProt P21730).
T1 construct: from tissue; host or cells: polymorphonuclear leukocyte (PMNL) membrane fragments
T1 sequence (P21730 1-350): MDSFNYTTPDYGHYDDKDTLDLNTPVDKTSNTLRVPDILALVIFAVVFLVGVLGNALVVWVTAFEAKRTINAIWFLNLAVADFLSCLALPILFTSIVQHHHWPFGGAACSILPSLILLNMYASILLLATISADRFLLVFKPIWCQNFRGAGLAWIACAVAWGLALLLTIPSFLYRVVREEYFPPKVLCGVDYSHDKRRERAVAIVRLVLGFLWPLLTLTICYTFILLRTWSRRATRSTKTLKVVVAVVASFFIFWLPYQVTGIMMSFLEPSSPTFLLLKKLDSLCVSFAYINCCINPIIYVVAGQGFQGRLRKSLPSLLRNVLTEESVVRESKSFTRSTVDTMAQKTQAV
The assay is described as follows: Anaphylatoxin (C5a) receptor binding Ki determination, 125I-C5a on PMNL membrane fragments. The conditions noted are these: read-out: Ki (In vitro C5a Receptor Binding Potency). The method, then: The membrane-bound radiolabeled C5a was separated from the free radiolabeled C5a by filtration, and the recovered gamma radioactivity was measured. […] Free and membrane-bound ligand were separated by filtration.
For `CC(C)C[C@H](NC(=O)[C@@H]1CCCN1C(=O)[C@H](CC1CCCCC1)NC(=O)CNC(=O)CCCCCN)C(=O)NC(CCCc1ccccc1)C(=O)N[C@@H](CCCNC(=N)N)C(=O)O` (single isomer, unassigned) [Example 110], the Ki came out at 9300 nM.
On to `CC(C)C[C@H](NC(=O)[C@@H]1CCCN1C(=O)[C@H](CC1CCCCC1)NC(=O)CNC(=O)CCCCCN)C(=O)NC(CCCc1ccccc1)C(=O)N[C@@H](CCCNC(=N)N)C(=O)O` (single isomer, unassigned) [Example 111], for which the Ki stood at 1000 nM.
As to `CC(C)C[C@H](NC(=O)CNC(=O)[C@H](CC1CCCCC1)NC(=O)CN(C)C(=O)CCCN)C(=O)NC(CCCc1ccccc1)C(=O)N[C@@H](CCCNC(=N)N)C(=O)O` (single isomer, unassigned) [Example 112], the inhibitory constant (Ki) was 17800 nM.
Turning to `CC(C)C[C@H](NC(=O)CCNC(=O)[C@H](CC1CCCCC1)NC(=O)CCCCCN)C(=O)NC(CCCc1ccccc1)C(=O)N[C@@H](CCCNC(=N)N)C(=O)O` (single isomer, unassigned) [Example 114], the inhibition constant Ki was determined as 18600 nM.
`CC(C)C[C@H](NC(=O)CCNC(=O)[C@H](CC1CCCCC1)NC(=O)CCCCCN)C(=O)NC(CCCc1ccccc1)C(=O)N[C@@H](CCCNC(=N)N)C(=O)O` (single isomer, unassigned) [Example 115]: the inhibition constant Ki was 5600 nM.
Consider `CC(C)C[C@H](NC(=O)[C@H](C)NC(=O)[C@H](CC1CCCCC1)NC(=O)CCCCCN)C(=O)NC(CCCc1ccccc1)C(=O)N[C@@H](CCCNC(=N)N)C(=O)O` (single isomer, unassigned) [Example 121], for which the Ki was 7150 nM.
On to `CC(C)C[C@H](NC(=O)CNC(=O)[C@H](Cc1ccccc1)NC(=O)CCCCCN)C(=O)NC(CCCc1ccccc1)C(=O)N[C@@H](CCCNC(=N)N)C(=O)O` (single isomer, unassigned) [Example 124, N-(6-Aminohexanoyl)-Phenylalanyl-Glycyl-Leucyl{(R/S)-2-Amino-5-phenylpentanoyl}-Arginyl-OH], for which the Ki amounted to 34000 nM.
On to `CC(C)C[C@H](NC(=O)CNC(=O)[C@H](Cc1ccccc1)NC(=O)CCCCCN)C(=O)NC(CCCc1ccccc1)C(=O)N[C@@H](CCCNC(=N)N)C(=O)O` (single isomer, unassigned) [Example 125, N-(6-Aminohexanoyl)-Phenylalanyl-Glycyl-Leucyl-{(R/S)-2-Amino-5-phenylpentanoyl}-Arginyl-OH], for which the inhibitory constant (Ki) worked out at 830 nM.
For the compound `CC(C)C[C@H](NC(=O)[C@@H](C)NC(=O)[C@H](CC1CCCCC1)NC(=O)CCCCCN)C(=O)NC(CCCc1ccccc1)C(=O)N[C@@H](CCCNC(=N)N)C(=O)O` (single isomer, unassigned) [Example 126], the Ki came to 13400 nM.
To `CC(C)C[C@H](NC(=O)[C@@H](C)NC(=O)[C@H](CC1CCCCC1)NC(=O)CCCCCN)C(=O)NC(CCCc1ccccc1)C(=O)N[C@@H](CCCNC(=N)N)C(=O)O` (single isomer, unassigned) [Example 127] belongs 23300 nM.
Take `CN[C@@H](Cc1ccccc1)C(=O)N[C@@H](CCCCN)C(=O)N1CCC[C@H]1C(=O)N[C@@H](CC1CCCCC1)C(=O)N[C@@H](C)C(=O)N[C@@H](CC(C)C)C(=O)NC(CCCc1ccccc1)C(=O)N[C@@H](CCCNC(=N)N)C(=O)O` (single isomer, unassigned) [Example 128]: the Ki was 27 nM.
For the compound `CN[C@@H](Cc1ccccc1)C(=O)N[C@@H](CCCCN)C(=O)N1CCC[C@H]1C(=O)N[C@@H](CC1CCCCC1)C(=O)N[C@@H](C)C(=O)N[C@@H](CC(C)C)C(=O)NC(CCCc1ccccc1)C(=O)N[C@@H](CCCNC(=N)N)C(=O)O` (single isomer, unassigned) [Example 129], the Ki was 17 nM.
For the compound `CC(C)C[C@H](NC(=O)[C@H](C)NC(=O)[C@H](CC1CCCCC1)NC(=O)CCCCCN)C(=O)NC(CCCc1ccccc1)C(=O)N[C@@H](CCCNC(=N)N)C(=O)O` (single isomer, unassigned) [Example 135], the inhibition constant Ki stood at 1300 nM.
Take `CC(C)C[C@H](NC(=O)CNC(=O)[C@H](CCC1CCCCC1)NC(=O)CCCCCN)C(=O)NC(CCCc1ccccc1)C(=O)N[C@@H](CCCNC(=N)N)C(=O)O` (single isomer, unassigned) [Example 137]: the inhibitory constant (Ki) stood at 4200 nM.
`CC(C)C[C@H](NC(=O)CNC(=O)[C@H](CCC1CCCCC1)NC(=O)CCCCCN)C(=O)NC(CCCc1ccccc1)C(=O)N[C@@H](CCCNC(=N)N)C(=O)O` (single isomer, unassigned) [Example 138]: the inhibition constant (Ki) is 330 nM.
As to `CC(C)C[C@H](NC(=O)CNC(=O)[C@H](CC1CCCCC1)NC(=O)CCCCN)C(=O)NC(CCCc1ccccc1)C(=O)N[C@@H](CCCNC(=N)N)C(=O)O` (single isomer, unassigned) [Example 139], the inhibition constant Ki came out at 1100 nM.
As for `CC(C)C[C@H](NC(=O)CNC(=O)[C@H](CC1CCCCC1)NC(=O)CCCCN)C(=O)NC(CCCc1ccccc1)C(=O)N[C@@H](CCCNC(=N)N)C(=O)O` (single isomer, unassigned) [Example 140], the Ki stood at 18600 nM.
With `CC(C)C[C@H](NC(=O)CNC(=O)[C@H](CC1CCCCC1)NC(=O)NCc1cccc(CN)c1)C(=O)NC(CCCc1ccccc1)C(=O)N[C@@H](CCCNC(=N)N)C(=O)O` (single isomer, unassigned) [Example 141], the inhibition constant Ki came out at 16000 nM.
As for `CC(C)C[C@H](NC(=O)CNC(=O)[C@H](CC1CCCCC1)NC(=O)NCc1cccc(CN)c1)C(=O)NC(CCCc1ccccc1)C(=O)N[C@@H](CCCNC(=N)N)C(=O)O` (single isomer, unassigned) [Example 142], the Ki was found to be 1300 nM.
To `CC(C)C[C@H](NC(=O)[C@H](C)NC(=O)[C@H](CC1CCCCC1)NC(=O)[C@@H]1CCCN1C(=O)[C@H](CCCCN)NC(=O)[C@@H](N)Cc1ccccc1)C(=O)N[C@H](CCCc1ccccc1)C(=O)N[C@@H](CCCNC(=N)N)C(=O)O` [Example 2, H-Phenylalanyl-Lysyl-Prolyl-{(2S)-2-Amino-3-cyclohexylpropanoyl}-Alanyl-Leucyl-{(R)-2-Amino-5-phenylpentanoyl}-Arginyl-OH] (H-FKP[Cha]AL[d(hhPhe)]R-OH) belongs 4.8 nM.
For `CC(C)C[C@H](NC(=O)[C@H](C)NC(=O)[C@H](CC1CCCCC1)NC(=O)[C@@H]1CCCN1C(=O)[C@H](CCCCN)NC(=O)[C@@H](N)Cc1ccccc1)C(=O)N[C@@H](CCCc1ccccc1)C(=O)N[C@@H](CCCNC(=N)N)C(=O)O` [Example 3, H-Phenylalanyl-Lysyl-Prolyl-{(2S)-2-Amino-3-cyclohexylpropanoyl}-Alanyl-Leucyl-{(S)-2-Amino-5-phenylpentanoyl}-Arginyl-OH] (H-FKP[Cha]AL[hhPhe]R-OH), the inhibition constant Ki amounted to 13 nM.
With `CC(C)C[C@H](NC(=O)Cc1c[nH]c2ccccc12)C(=O)N[C@@H](CCCc1ccccc1)C(=O)N[C@@H](CCCNC(=N)N)C(=O)O` [Example 20, N-{Indole-3-acetyl}-Leucyl-{(S)-2-Amino-5-phenylpentanoyl}-Arginyl-OH], the Ki came to 6650 nM.
Turning to `CC(C)C[C@H](NC(=O)[C@H](C)NC(=O)[C@H](CC1CCCCC1)NC(=O)[C@@H]1CCCN1C(=O)[C@H](CCCCN)NC(=O)CN)C(=O)N[C@H](CSCCCc1ccccc1)C(=O)N[C@@H](CCCNC(=N)N)C(=O)O` [Example 22, H-Glycyl-Lysyl-Prolyl-{(2S)-2-Amino-3-cyclohexylpropanoyl}-Alanyl-Leucyl-DCysteinyl(S-3-phenylpropyl)-Arginyl-OH] (H-GKP[Cha]AL[dC](X8)R-OH), the Ki was 4700 nM.
In the case of `CC(C)C[C@H](NC(=O)[C@H](C)NC(=O)[C@H](CC1CCCCC1)NC(=O)[C@@H]1CCCN1C(=O)[C@H](CCCCN)NC(=O)CN)C(=O)N[C@H](CSCc1ccccc1)C(=O)N[C@@H](CCCNC(=N)N)C(=O)O` [Example 31, H-Glycyl-Lysyl-Propyl-{(2S)-2-Amino-3-cyclohexylpropanoyl}-Alanyl-Leucyl-DCysteinyl(S-benzyl)-Arginyl-OH] (H-GKP[Cha]AL[dC](Bn)R-OH) it was 1100 nM; in that of `CC(C)C[C@H](NC(=O)CCc1c[nH]c2ccccc12)C(=O)N[C@H](CCCc1ccccc1)C(=O)N[C@@H](CCCNC(=N)N)C(=O)O` [Example 38, N=(Indole-3-propionyl)-Leucyl-{(R)-2-Amino-5-phenylpentanoyl}-Arginyl-OH], 8400 nM; in that of `CC(C)C[C@H](NC(=O)CNC(=O)[C@H](CC1CCCCC1)NC(=O)Cc1ccccc1)C(=O)N[C@H](CCCc1ccccc1)C(=O)N[C@@H](CCCNC(=N)N)C(=O)O` [Example 47, N-Phenylacetyl-{(2S)-2-Amino-3-cyclohexylpropanoyl}-Glycyl-Leucyl-{(R)-2-Amino-5-phenylpentanoyl}-Arginyl-OH] (PhAc-[Cha]GL[d(hhPhe)]R-OH), 1100 nM.
With `CC(C)C[C@H](NC(=O)CNC(=O)[C@H](CC1CCCCC1)NC(=O)CCCCCCN)C(=O)NC(CCOc1ccccc1)C(=O)N[C@@H](CCCNC(=N)N)C(=O)O` (some centres unmarked) [Example 48] (H-[Ahp][Cha]GL[X2]R-OH), the Ki came out at 230 nM.
With `CC(C)C[C@H](NC(=O)CNC(=O)[C@H](CC1CCCCC1)NC(=O)CCc1ccccc1)C(=O)N[C@H](CCCc1ccccc1)C(=O)N[C@@H](CCCNC(=N)N)C(=O)O` [Example 49, N-(3-Phenylpropanoyl)-{(2S)-2-Amino-3-cyclohexylpropanoyl}-Glycyl-Leucyl-{(R)-2-Amino-5-phenylpentanoyl}-Arginyl-OH] (Hydrocinnamoyl-[Cha]GL[d(hhPhe)]R-OH), the inhibition constant (Ki) was 720 nM.
For the compound `CC(C)C[C@H](NC(=O)CNC(=O)Cc1c[nH]c2ccccc12)C(=O)N[C@H](CCCc1ccccc1)C(=O)N[C@@H](CCCNC(=N)N)C(=O)O` [Example 50, N-(Indole-3-acetyl)-Glycyl-Leucyl-{(R)-2-Amino-5-phenylpentanoyl}-Arginyl-O] (X10-GL[d(hhPhe)]R-OH), the inhibitory constant (Ki) amounted to 190 nM.
